Test results published in the Deep4Chem optical property database.
Where “and” joins values, the source holds several entries; their conditions need not be identical. Equal values may be shown once. Each block holds one compound with its values, some of them ahead of it.

Assay: solvent given as SMILES

Structure (SMILES): CC(C)(C)c1ccc(-c2sc3c(-c4ccc(C(C)(C)C)cc4)c4n(c3c2-c2ccc(C(C)(C)C)cc2)[B-](F)(F)[N+]2=Cc3c(-c5ccc(C(C)(C)C)cc5)c5sc(-c6ccc(C(C)(C)C)cc6)c(-c6ccc(C(C)(C)C)cc6)c5n3[B-](F)(F)[N+]2=C4)cc1
emission maximum (in CC#N): 627 nm
emission maximum (in CCCCCC): 626 nm
emission maximum (in CN(C)C=O): 636 nm
emission maximum (in Cc1ccccc1): 632 nm
emission maximum (in ClCCl): 631 nm

Structure (SMILES): C(S/C=C/c1ccc(-c2ccc(/C=C/SC=C3CCCCCCC3)cc2)cc1)=C1CCCCCCC1
emission maximum (in ClCCl): 437 nm

Structure (SMILES): FC(F)(F)c1c(-n2c3ccccc3c3ccccc32)c(-n2c3ccccc3c3ccccc32)c(-n2c3ccccc3c3ccccc32)c(-n2c3ccccc3c3ccccc32)c1-n1c2ccccc2c2ccccc21
emission maximum (in ClCCl): 481 nm

Structure (SMILES): O=S1(=O)c2ccccc2-c2c1c1ccccc1p2-c1ccccc1 (stereo not drawn)
emission maximum (in C1CCCCC1): 436 nm
emission maximum (in CC#N): 453 nm
emission maximum (in CCO): 464 nm
emission maximum (in ClCCl): 453 nm

Structure (SMILES): CCCCc1ccc(-n2c3c(c4c2c2c(n4-c4ccc(CCCC)cc4)-c4cc(F)ccc4NB2c2ccccc2)B(c2ccccc2)Nc2ccc(F)cc2-3)cc1
emission maximum (in Cc1ccccc1): 406 nm

Structure (SMILES): Fc1c(-n2c3ccccc3c3ccccc32)c(-c2nnc(-c3ccccc3)o2)c(-n2c3ccccc3c3ccccc32)c(-n2c3ccccc3c3ccccc32)c1-n1c2ccccc2c2ccccc21
emission maximum (in Cc1ccccc1): 483 nm

Structure (SMILES): CC1(C)Nc2ccccc2-c2[nH]c3ccccc3c(=O)c21
emission maximum (in C1CCOC1): 483 nm
emission maximum (in CC#N): 507 nm
emission maximum (in CCCCO): 521 nm
emission maximum (in CCCO): 522 nm
emission maximum (in CCO): 523 nm
emission maximum (in CCOC(C)=O): 491 nm
emission maximum (in CN(C)C=O): 506 nm
emission maximum (in CO): 531 nm
emission maximum (in CS(C)=O): 510 nm
emission maximum (in Cc1ccccc1): 471 nm
emission maximum (in ClC(Cl)(Cl)Cl): 460 nm
emission maximum (in ClCCl): 491 nm
emission maximum (in O): 552 nm
emission maximum (in c1ccccc1): 474 nm

Structure (SMILES): c1ccc(-c2ccc(-c3nc(-c4ccccc4)c(N(c4ccccc4)c4ccccc4)[se]3)cc2)cc1
emission maximum (in ClC(Cl)Cl): 468 nm

Structure (SMILES): c1ccc(Cc2c3ccc(=[N+]4CCCCC4)cc-3oc3cc(N4CCCCC4)ccc23)cc1
emission maximum (in ClCCl): 582 nm

Structure (SMILES): CCCCCCCCCCCCOc1cc2c3cc(OCCCCCCCCCCCC)c(OCCCCCCCCCCCC)cc3c3c(cc(OCCCCCCCCCCCC)c4nc5cc(C#Cc6ccc(OCCCCCCCC)cc6)c(C#Cc6ccc(OCCCCCCCC)cc6)cc5nc43)c2cc1OCCCCCCCCCCCC
emission maximum (in ClC(Cl)Cl): 657 nm

Structure (SMILES): CCOC(=O)COc1ccc(/C=C/C2=C3c4ccccc4C(c4[nH]c(C)cc4C)=[N+]3[B-](F)(F)n3c(/C=C/c4ccc(OCC(=O)OCC)cc4)cc(C)c32)cc1
emission maximum (in C1CCOC1): 730 nm
emission maximum (in CC#N): 727 nm
emission maximum (in CCCCCC): 731 nm
emission maximum (in CO): 726 nm
emission maximum (in Cc1ccccc1): 735 nm
emission maximum (in ClCCl): 733 nm

Structure (SMILES): COc1ccc(-c2nc(-c3ccc(-c4nc(-c5ccc(OC)cc5)c(-c5ccc(OC)cc5)[nH]4)cc3)[nH]c2-c2ccc(OC)cc2)cc1
emission maximum (in CC#N): 416.5 nm and 440 nm

Structure (SMILES): CCCCCCCCCCCCOc1cc2c3c(ccc4c5c(SCCCCCCCCCCCC)cc6c7c(ccc(c1c34)c75)C(=O)N(C1CCCCC1)C6=O)C(=O)N(C1CCCCC1)C2=O
emission maximum (in ClC(Cl)Cl): 640 nm

Structure (SMILES): F[Si-](F)(c1c2ccccc2cc2ccccc12)(c1c2ccccc2cc2ccccc12)c1c2ccccc2cc2ccccc12
emission maximum (in C1CCOC1): 396 nm

Structure (SMILES): CCCCC1(CCCC)c2cc(-c3ccc(C=C4C(=O)c5ccccc5C4=O)cc3)ccc2-c2ccc(-c3ccc(C=C4C(=O)c5ccccc5C4=O)cc3)cc21
emission maximum (in C1CCOC1): 532 nm
emission maximum (in CC(C)=O): 564 nm
emission maximum (in CCCCCC): 465 nm
emission maximum (in CS(C)=O): 596 nm
emission maximum (in Cc1ccccc1): 492 nm
emission maximum (in ClC(Cl)Cl): 527 nm

Structure (SMILES): CCCCC1(CCCC)c2cc(C#Cc3ccc(C=C4c5ccccc5-c5ccccc54)cc3)ccc2-c2ccc(C#Cc3ccc(C=C4c5ccccc5-c5ccccc54)cc3)cc21
emission maximum (in C1CCOC1): 406 nm

Structure (SMILES): CC(C)[Si]1(C(C)C)c2cc(C#N)ccc2-c2ccc(N(c3ccccc3)c3ccccc3)cc21
emission maximum (in C1CCCCC1): 413 nm
emission maximum (in CC#N): 500 nm
emission maximum (in CCO): 482 nm
emission maximum (in CCOCC): 436 nm
emission maximum (in CS(C)=O): 500 nm
emission maximum (in ClCCl): 470 nm
emission maximum (in c1ccccc1): 432 nm

Structure (SMILES): Cc1ccc(/C=C/c2ccccc2-[n+]2noc([O-])c2C)cc1
emission maximum (in C1CCCCC1): 348 nm
emission maximum (in CC#N): 450 nm

Structure (SMILES): CCOc1cc2c(cc1/C=C/C(=C(C#N)C#N)c1ccccc1)c1ccccc1n2CC
emission maximum (in C1CCOC1): 541 nm
emission maximum (in CC#N): 569 nm
emission maximum (in CCO): 575 nm
emission maximum (in CCOC(C)=O): 537 nm
emission maximum (in CN(C)C=O): 573 nm
emission maximum (in CS(C)=O): 575 nm
emission maximum (in Cc1ccccc1): 522 nm
emission maximum (in ClC(Cl)Cl): 550 nm
emission maximum (in ClCCl): 558 nm

Structure (SMILES): CC(C)(C)c1ccc(-n2c(-c3ccc(N(c4ccc(-c5ccc(N(c6ccc(-c7nc8c9ccccc9c9ccccc9c8n7-c7ccc(C(C)(C)C)cc7)cc6)c6ccc(-c7nc8c9ccccc9c9ccccc9c8n7-c7ccc(C(C)(C)C)cc7)cc6)cc5)cc4)c4ccc(-c5nc6c7ccccc7c7ccccc7c6n5-c5ccc(C(C)(C)C)cc5)cc4)cc3)nc3c4ccccc4c4ccccc4c32)cc1
emission maximum (in ClCCl): 430 nm

Structure (SMILES): c1ccc(C2=C(c3ccccc3)c3cccc4c3c(cc3nc5cc(-c6ccccc6)c(-c6ccccc6)cc5nc34)O2)cc1
emission maximum (in ClCCl): 559 nm

Structure (SMILES): O=C(O)C1=C(C(=O)O)C2=C[C@H]3c4ccccc4[C@]2([Se]1)c1ccccc13
emission maximum (in ClCCl): 507 nm

Structure (SMILES): CN(C)c1ccc(/C=C2\CCCC2=O)cc1
emission maximum (in CC#N): 488 nm
emission maximum (in CC(C)=O): 474 nm
emission maximum (in CC(C)O): 472 nm
emission maximum (in CCCCCC): 405 nm
emission maximum (in CCCCO): 479 nm
emission maximum (in CCCO): 479 nm
emission maximum (in CCO): 480 nm
emission maximum (in CCOC(C)=O): 448 nm
emission maximum (in CCOCC): 420 nm
emission maximum (in CN(C)C=O): 504 nm
emission maximum (in CO): 488 nm
emission maximum (in CS(C)=O): 493 nm
emission maximum (in Cc1ccccc1): 424 nm
emission maximum (in ClC(Cl)(Cl)Cl): 431 nm
emission maximum (in ClC(Cl)Cl): 469 nm
emission maximum (in ClCCl): 472 nm
emission maximum (in S=C=S): 422 nm
emission maximum (in c1ccccc1): 435 nm
emission maximum (in c1ccncc1): 480 nm

Structure (SMILES): C#Cc1ccc(C#Cc2cnc(C#Cc3ccccc3)nc2)cc1
emission maximum (in C1CCCCC1): 415 nm

Structure (SMILES): Fc1ccc(N(c2ccccc2)c2ccc3ccc4c(N(c5ccccc5)c5ccc(F)cc5)ccc5ccc2c3c54)cc1
emission maximum (in ClCCl): 470 nm

Structure (SMILES): CCCC1=Cc2nc1ccc1[nH]c(cc1CCC)c1nc(c(NC(=O)CCCC(=O)OC)cc3[nH]c2cc3CCC)C(CCC)=C1
emission maximum (in Cc1ccccc1): 680 nm

Structure (SMILES): ClP1(Cl)=NP(Cl)(Cl)=NP(Cl)(Oc2ccc3ccc4cccc5ccc2c3c45)=N1 (stereo not drawn)
emission maximum (in ClCCl): 417 nm

Structure (SMILES): F[B-]1(F)OC(/C=C/c2ccccc2)=CC(c2ccccc2)=[O+]1
emission maximum (in ClCCl): 443 nm

Structure (SMILES): C(=C1c2ccccc2CCc2ccccc21)c1ccc(C=C2c3ccccc3CCc3ccccc32)cc1
emission maximum (in C1CCOC1): 406 nm

Structure (SMILES): C(=C\c1ccc(/C=C/c2ccc(N(c3ccccc3)c3ccccc3)cc2)c2nsnc12)/c1ccc(N(c2ccccc2)c2ccccc2)cc1
emission maximum (in C1CCOC1): 637 nm
emission maximum (in CCOC(C)=O): 627 nm
emission maximum (in CN(C)C=O): 690 nm
emission maximum (in Cc1ccccc1): 611 nm
emission maximum (in ClC(Cl)Cl): 651 nm
emission maximum (in ClCCl): 659 nm

Structure (SMILES): CN(C)c1ccc2[c](c1)[Sn]([CH3])([CH3])[C]1=CC(=[N+](C)C)C=CC1=C2
emission maximum (in O): 628 nm

Structure (SMILES): COc1ccc(-n2nc(C#N)c(N3CCC(N4CCCCC4)CC3)n2)cc1
emission maximum (in CC#N): 403 nm

Structure (SMILES): CCCCCCCCC1(CCCCCCCC)c2cc3c(cc2-c2sc(-c4ccc(/C=C5\SC(=S)N(CC)C5=O)c5nsnc45)cc21)C(CCCCCCCC)(CCCCCCCC)c1cc(-c2ccc(/C=C4\SC(=S)N(CC)C4=O)c4nsnc24)sc1-3
emission maximum (in ClC(Cl)Cl): 728 nm

Structure (SMILES): Cc1ccc(-c2ccc(/C=C/c3ccc(Br)n3C)cn2)nc1
emission maximum (in CC#N): 480 nm

Next, values leading:

emission maximum (in CCO): 408 nm
emission maximum (in ClCCl): 515 nm
emission maximum (in O): 517 nm
Structure (SMILES): Oc1cc(-c2cccs2)ccc1-c1nc2ccccc2s1

emission maximum (in ClCCl): 712 nm
Structure (SMILES): COc1c2ccccc2c(OC)c2c(C#C[Si](C(C)C)(C(C)C)C(C)C)c3cc4ccccc4cc3c(C#C[Si](C(C)C)(C(C)C)C(C)C)c12

emission maximum (in ClC(Cl)Cl): 447 nm
Structure (SMILES): Cc1cccc(C2=Cc3c4ccccc4c4ccccc4[n+]3[B-](F)(F)O2)c1

emission maximum (in CC#N): 644 nm
emission maximum (in CO): 640 nm
emission maximum (in ClCCl): 638 nm
emission maximum (in O): 641 nm
Structure (SMILES): CN(C)c1ccc2c3c(c(=O)oc2c1)C=c1cc2c(cc1O3)=[N+](CCC(=O)O)CCC2

emission maximum (in O): 601 nm
Structure (SMILES): CC[n+]1c(-c2ccccc2)c2cc(NC(N)=O)ccc2c2ccc(N)cc21

emission maximum (in CO): 550 nm
Structure (SMILES): CCOC(=O)CCCCCn1c2ccccc2c(=O)c2cc3c(cc21)c(=O)c1ccccc1n3CC

emission maximum (in CO): 651 nm
emission maximum (in ClC(Cl)Cl): 666 nm
Structure (SMILES): CC[n+]1c(C=C2C(=O)C(C=C3N(C)c4ccccc4C3(C)C)=C2[O-])sc2ccccc21

emission maximum (in ClCCl): 445 nm
Structure (SMILES): CCOC(=O)C1=C(C(=O)OCC)C2(c3ccccc3-c3ccccc32)[C@@H](c2ccc(Cl)cc2)C=C2c3cc(OC)c(OC)cc3CCN21

emission maximum (in ClCCl): 446 nm
Structure (SMILES): CC(=O)c1c(N[C@H](C(=O)O)C(C)C)c2ccc(N(C)C)cc2oc1=O

emission maximum (in ClCCl): 682 nm
Structure (SMILES): COc1c2ccccc2c(OC)c2c(C#CC(C)(C)C)c3cc4ccccc4cc3c(C#CC(C)(C)C)c12

emission maximum (in c1ccccc1): 500 nm
Structure (SMILES): CN(C)c1ccc2nc(-c3ccccc3)c(=O)oc2c1

emission maximum (in ClC(Cl)Cl): 398 nm
Structure (SMILES): CCCCn1c2ccccc2c2ccc3c4cc(-c5cccc(F)c5)ccc4n(CCCC)c3c21

emission maximum (in CO): 566 nm
Structure (SMILES): CCOC(=O)CCCCCn1c2ccc(F)cc2c(=O)c2cc3c(cc21)c(=O)c1cc(F)ccc1n3CCCCCC(=O)OCC

emission maximum (in C1CCCCC1): 375 nm
emission maximum (in CC#N): 376 nm
emission maximum (in CO): 375 nm
emission maximum (in ClC(Cl)Cl): 376 nm
Structure (SMILES): CC1(C)CC(NCc2ccc3ccc4cccc5ccc2c3c45)CC(C)(C)N1[O]

emission maximum (in CS(C)=O): 416 nm
Structure (SMILES): COc1cc2sc3cc(OC)c(F)cc3c(=O)c2cc1F

emission maximum (in ClCCl): 419 nm
Structure (SMILES): COc1c(C(C)=O)c(=O)oc2cc(N(C)C)ccc12

emission maximum (in ClCCl): 415 nm
Structure (SMILES): COc1ccc2c(c1)c1cc(OC)ccc1c1c2ccc2cccc(C(=O)NC(C)(C)C)c21
